Test results as given in patent publication US10323000B2, “Indole derivatives and their use in neurodegenerative diseases” (priority 2014, dated 2019).
pIC50: −log10 of the molar value. Read-outs that look alike come from different tables or passages of the source.

Key:
[1] = target: human P2X7 receptor (Homo sapiens (Human), UniProt Q99572); assay: Pore permeation assay (YO PRO dye uptake); format: cell-based
[2] = target: P2X7 (IL-1β release from THP-1 cells) (Homo sapiens (Human), UniProt Q99572); assay: IL-1β release assay; format: cell-based
P2X7 (IL-1β release from THP-1 cells), sequence (Q99572 whole entry): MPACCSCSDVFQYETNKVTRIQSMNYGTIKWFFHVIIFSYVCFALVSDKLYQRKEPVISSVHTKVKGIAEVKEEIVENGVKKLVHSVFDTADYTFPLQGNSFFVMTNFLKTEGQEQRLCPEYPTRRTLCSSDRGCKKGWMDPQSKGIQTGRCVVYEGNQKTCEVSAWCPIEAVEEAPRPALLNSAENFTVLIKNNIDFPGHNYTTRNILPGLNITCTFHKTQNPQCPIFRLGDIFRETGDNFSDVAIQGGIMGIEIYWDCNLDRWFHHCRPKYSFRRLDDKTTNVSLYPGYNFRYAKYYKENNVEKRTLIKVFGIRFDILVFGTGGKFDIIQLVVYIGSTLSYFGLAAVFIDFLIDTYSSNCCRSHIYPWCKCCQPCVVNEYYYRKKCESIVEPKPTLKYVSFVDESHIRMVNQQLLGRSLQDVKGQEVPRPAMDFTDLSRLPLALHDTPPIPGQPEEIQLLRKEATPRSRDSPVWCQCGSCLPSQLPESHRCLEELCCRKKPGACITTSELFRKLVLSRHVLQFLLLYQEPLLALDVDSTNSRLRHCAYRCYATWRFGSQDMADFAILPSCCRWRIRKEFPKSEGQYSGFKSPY
Procedure, shortened: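 THP-1 cells were differentiated with PMA 0.5 μM and primed 4 h with LPS 10 ng/ml. They were then pre-incubated 20 min with compound at 37° C and stimulated 30 min with BzATP 0.8 mM. Mature IL-1β released into the supernatant was quantified by sandwich ELISA.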

[3] = HEK293 transfected with human P2X7, BzATP 10 uM, YO PRO dye uptake, read-out: hP2X7 IC50
[4] = THP-1 cells, LPS primed, 0.8 mM BzATP, mature IL-1β by sandwich ELISA, read-out: hTHP-1/IL-ib IC50

human P2X7 receptor, sequence (Q99572 whole entry): as above

Row | Compound | pIC50 [1] | pIC50 [2] | pIC50 [1, 3] | pIC50 [2, 4]
1 | O=C(NC[C@]1(O)CCCC(F)(F)C1)c1cn(C2COC2)c2cccc(Cl)c12 [Compound 85, (S)-4-chloro-N-((3,3-difluoro-1-hydroxycyclohexyl)methyl)-1-(oxetan-3-yl)-1H-indole-3-carboxamide] | 7.00 to 8.00 | 7.00 to 8.00 |  | 
2 | O=C(NCC1CCC(F)(F)CC1)c1cn(CC2CCNC2)c2cccc(Cl)c12 (centres unmarked) [Compound 160] | 6.30 to 7.00 | 6.30 to 7.00 |  | 
3 | O=C(NCC1CCC(F)(F)CC1)c1cn(CCOC2CC2)c2cccc(Cl)c12 [Compound 149, 4-chloro-1-(2-cyclopropoxyethyl)-N-((4,4-difluorocyclohexyl)methyl)-1H-indole-3-carboxamide] | 7.00 to 8.00 | 6.30 to 7.00 |  | 
4 | O=C(NC[C@@H]1CCCC(F)(F)C1)c1cn(C2COC2)c2cccc(Cl)c12 [Compound 66, 4-chloro-N—(((R)-3,3-difluorocyclohexyl)methyl)-1-(oxetan-3-yl)-1H-indole-3-carboxamide] | 7.00 to 8.00 | 6.30 to 7.00 |  | 
5 | O=C(NCC1(O)CCC(F)(F)CC1)c1cn(C2COC2)c2cccc(Cl)c12 [Compound 92, 4-chloro-N-((4,4-difluoro-1-hydroxycyclohexyl)methyl)-1-(oxetan-3-yl)-1H-indole-3-carboxamide] | 7.00 to 8.00 | 6.30 to 7.00 |  | 
6 | CN(C)C(=O)Cn1cc(C(=O)NCC2CCC(F)(F)CC2)c2c(Cl)cccc21 [Compound 208, 4-Chloro-1-dimethylcarbamoylmethyl-1H-indole-3-carboxylic acid (4,4-difluoro-cyclohexylmethyl)-amide] |  | 7.00 to 8.00 | > 8.00 | 
7 | C[C@@H]1CCC[C@](O)(CNC(=O)c2cn(CC(F)(F)F)c3cccc(Cl)c23)C1 [Compound 3, 4-chloro-N-(((1R,3R)-1-hydroxy-3-methylcyclo-hexyl)methyl)-1-(2,2,2-trifluoroethyl)-1H-indole-3-carboxamide] | 7.00 to 8.00 | 6.30 to 7.00 |  | 
8 | O=C(NCC1CCC(F)(F)CC1)c1cn(C[C@@H]2CCN2)c2cccc(Cl)c12 [Compound 122, (S)-1-(azetidin-2-ylmethyl)-4-chloro-N-((4,4-difluorocyclohexyl)methyl)-1H-indole-3-carboxamide] | 7.00 to 8.00 | 7.00 to 8.00 |  | 
9 | O=C(NCC1(O)CCC(F)(F)CC1)c1cn(CC2CCCO2)c2cccc(Cl)c12 (centres unmarked) [Compound 142, 4-chloro-N-((4,4-difluoro-1-hydroxycyclohexyl)methyl)-1-((tetrahydrofuran-2-yl)methyl)-1H-indole-3-carboxamide] | 7.00 to 8.00 | 6.30 to 7.00 |  | 
10 | O=C(NCC1CCC(F)(F)CC1)c1cn(C2COC2)c2cccc(Cl)c12 [Compound 94, 4-chloro-N-((4,4-difluorocyclohexyl)methyl)-1-(oxetan-3-yl)-1H-indole-3-carboxamide] | 7.00 to 8.00 | 7.00 to 8.00 |  | 
11 | COCCn1cc(C(=O)NCCc2ccccc2Cl)c2c(Cl)cccc21 [Compound 35, 4-Chloro-1-(2-methoxy-ethyl)-1H-indole-3-carboxylic acid [2-(2-chloro-phenyl)-ethyl]-amide] | 6.30 to 7.00 | 6.30 to 7.00 |  | 
12 | O=C(NCC1CCC(F)(F)CC1)c1cn(C2CCNC2)c2cccc(Cl)c12 (centres unmarked) [Compound 121, 4-chloro-N-((4,4-difluorocyclohexyl)methyl)-1-(pyrrolidin-3-yl)-1H-indole-3-carboxamide] | 7.00 to 8.00 | 7.00 to 8.00 |  | 
13 | O=C(NCC1C[C@@H]2CC[C@H]1C2)c1cn(C2CCOC2)c2cccc(Cl)c12 (stereo partly drawn) [Compound 105, 4-Chloro-1-(tetrahydro-furan-3-yl)-1H-indole-3-carboxylic acid ((1S,4R)-1-bicyclo[2.2.1]hept-2-ylmethyl)-amide] | 7.00 to 8.00 | 6.30 to 7.00 |  | 
14 | C[C@H]1CCC[C@@](O)(CNC(=O)c2cn(CC3CCCO3)c3cccc(Cl)c23)C1 (stereo partly drawn) [Compound 140, 4-chloro-N-(((1S,3S)-1-hydroxy-3-methylcyclohexyl)methyl)-1-((tetrahydrofuran-2-yl)methyl)-1H-indole-3-carboxamide] | 7.00 to 8.00 | 7.00 to 8.00 |  | 
15 | O=C(NCC1CCCCC1)c1cn(C2CCOC2)c2cccc(Cl)c12 (centres unmarked) [Compound 101, 4-chloro-N-(cyclohexylmethyl)-1-(tetrahydrofuran-3-yl)-1H-indole-3-carboxamide] | 6.30 to 7.00 | 6.00 to 6.30 |  | 
16 | O=C(NCC1CCCC(F)(F)C1)c1cn(CC2CCCN2)c2cccc(Cl)c12 (centres unmarked) [Compound 156, 4-chloro-N-((3,3-difluorocyclohexyl)methyl)-1-(pyrrolidin-2-ylmethyl)-1H-indole-3-carboxamide] | 7.00 to 8.00 |  |  | > 8.00
17 | CN1CC(n2cc(C(=O)NCC3(O)CCC(F)(F)CC3)c3c(Cl)cccc32)C1 [Compound 118, 4-chloro-N-((4,4-difluoro-1-hydroxycyclohexyl)methyl)-1-(1-methylazetidin-3-yl)-1H-indole-3-carboxamide] | 6.00 to 6.30 | 7.00 to 8.00 |  | 

Row | Compound | pIC50 [1] | pIC50 [2] | pIC50 [1, 3] | pIC50 [2, 4]
18 | COCCn1cc(C(=O)NCC2(O)CCCCC2)c2c(Cl)cccc21 [Compound 19, 4-Chloro-1-(2-methoxy-ethyl)-1H-indole-3-carboxylic acid (1-hydroxy-cyclohexyl methyl)-amide] | 7.00 to 8.00 | 6.30 to 7.00 |  | 
19 | O=C(NCC1(N2CCN(c3ccccc3)CC2)CCOCC1)c1cn(C2COC2)c2cccc(Cl)c12 [Compound 44, 4-chloro-1-(oxetan-3-yl)-N-((4-(4-phenylpiperazin-1-yl)tetrahydro-2H-pyran-4-yl)methyl)-1H-indole-3-carboxamide] | 7.00 to 8.00 | 6.30 to 7.00 |  | 
20 | O=C(NCC1CCCCC1)c1cn(C2COC2)c2cccc(Cl)c12 [Compound 48, 4-chloro-N-(cyclohexylmethyl)-1-(oxetan-3-yl)-1H-indole-3-carboxamide] | 6.30 to 7.00 | 6.30 to 7.00 |  | 
21 | O=C(NCC1(N2CCN(c3ccccc3)CC2)CCCCC1)c1cn(C2COC2)c2cccc(Cl)c12 [Compound 51, 4-chloro-1-(oxetan-3-yl)-N-((1-(4-phenylpiperazin-1-yl)cyclohexyl)methyl)-1H-indole-3-carboxamide] | 7.00 to 8.00 |  |  | > 8.00
22 | CC1CC(F)(F)CC(O)(CNC(=O)c2cn(CC(F)(F)F)c3cccc(Cl)c23)C1 (centres unmarked) [Compound 1, 4-chloro-N-((3,3-difluoro-1-hydroxy-5-methylcyclohexyl)methyl)-1-(2,2,2-trifluoroethyl)-1H-indole-3-carboxamide] |  |  | 6.30 to 7.00 | < 6.00
23 | CC1(C)CCCC(O)(CNC(=O)c2cn(C3COC3)c3cccc(Cl)c23)C1 (centres unmarked) [Compound 64, 4-Chloro-1-oxetan-3-yl-1H-indole-3-carboxylic acid (1-hydroxy-3,3-dimethyl-cyclohexylmethyl)-amide] | 7.00 to 8.00 | 7.00 to 8.00 |  | 
24 | NCCn1cc(C(=O)NCC2CCC(F)(F)CC2)c2c(Cl)cccc21 [Compound 6, 1-(2-aminoethyl)-4-chloro-N-((4,4-difluorocyclo-hexyl)methyl)-1H-indole-3-carboxamide] | 6.30 to 7.00 | 7.00 to 8.00 |  | 
25 | O=C(NCCC1CCCC1)c1cn(C2COC2)c2cccc(Cl)c12 [Compound 82, 4-Chloro-1-oxetan-3-yl-1H-indole-3-carboxylic acid (2-cyclopentyl-ethyl)-amide] |  | 6.30 to 7.00 | > 8.00 | 
26 | COCCn1cc(C(=O)NCC2(O)CCCC(F)(F)C2)c2c(Cl)cccc21 (centres unmarked) [Compound 37, 4-chloro-N-((3,3-difluoro-1-hydroxycyclohexyl)methyl)-1-(2-methoxyethyl)-1H-indole-3-carboxamide] | 7.00 to 8.00 | 7.00 to 8.00 |  | 
27 | CC(NC(=O)c1cn(C2COC2)c2cccc(Cl)c12)[C@]12C[C@H]3C[C@H](C[C@H](C3)C1)C2 (some centres unmarked) [Compound 62, 4-Chloro-1-oxetan-3-yl-1H-indole-3-carboxylic acid (1-adamantan-1-yl-ethyl)-amide] | 7.00 to 8.00 | 7.00 to 8.00 |  | 
28 | CCN(CC)C(=O)Cn1cc(C(=O)NCC2CCC(F)(F)CC2)c2c(Cl)cccc21 [Compound 207, 4-Chloro-1-diethylcarbamoylmethyl-1H-indole-3-carboxylic acid (4,4-difluoro-cyclohexylmethyl)-amide] | 7.00 to 8.00 | 6.30 to 7.00 |  | 
29 | O=C(NCC1(O)CCCC(F)(F)C1)c1cn(C[C@H]2CCCO2)c2cccc(Cl)c12 (stereo partly drawn) [Compound 133, 4-chloro-N-((3,3-difluoro-1-hydroxycyclohexyl)methyl)-1-(((R)-tetrahydrofuran-2-yl)methyl)-1H-indole-3-carboxamide] | 7.00 to 8.00 | 7.00 to 8.00 |  | 
30 | O=C(NCC1CCC(F)(F)CC1)c1cn(CCC(F)(F)F)c2cccc(Cl)c12 [Compound 13, 4-chloro-N-((4,4-difluorocyclohexyl)methyl)-1-(3,3,3-trifluoropropyl)-1H-indole-3-carboxamide] | 7.00 to 8.00 | 7.00 to 8.00 |  | 
31 | O=C(NCCOC1CCCC1)c1cn(C2COC2)c2cccc(Cl)c12 [Compound 72, 4-Chloro-1-oxetan-3-yl-1H-indole-3-carboxylic acid (2-cyclopentyloxy-ethyl)-amide] | 6.00 to 6.30 |  |  | < 6.00
32 | CC1CC(CNC(=O)c2cn(CC3CCCN3)c3cccc(Cl)c23)CC(F)(F)C1 (centres unmarked) [Compound 157, 4-chloro-N-((3,3-difluoro-5-methylcyclohexyl)methyl)-1-(pyrrolidin-2-ylmethyl)-1H-indole-3-carboxamide] | 7.00 to 8.00 |  |  | > 8.00
33 | O=C(NCC1(O)CCCC(F)(F)C1)c1cn(CC2CCCN2)c2cccc(Cl)c12 (centres unmarked) [Compound 155, 4-chloro-N-((3,3-difluoro-1-hydroxycyclohexyl)methyl)-1-(pyrrolidin-2-ylmethyl)-1H-indole-3-carboxamide] | 7.00 to 8.00 |  |  | > 8.00
34 | COCCn1cc(C(=O)NCCc2ccc(Cl)cc2Cl)c2c(Cl)cccc21 [Compound 36] | 6.30 to 7.00 |  |  | < 6.00
